Series [1] has as its target T1, Beta-secretase 1 (Homo sapiens, UniProt P56817). As to the kind of experiment: Inhibition of BACE1 in HEK293 cells harboring APP assessed as reduction in amyloidbeta 40 level incubated for 18 to 20 hrs by AlphaLISA Assay. It counts as cell-based. For orientation: In Alpha technology, singlet oxygen from a donor bead excites a nearby acceptor bead.
Series [2] addresses T1, Beta-secretase 1. Kind of series: Inhibition of human BACE1 expressed in Escherichia coli preincubated for 1 hr followed by Mca-Ser-Glu-Val-Asn-Leu-Asp-Ala-Glu-Phe-Lys(Dnp)-OH substrate addition by spectroflurimetric assay.
Series [3] can be described thus: Dissociation constant, pKa of the compound. It counts as physicochemical.
The target of series [4] is Beta-secretase 1 (Rattus norvegicus, UniProt P56819). As to the kind of experiment: Inhibition of BACE1 in Wistar rat neuronal cell suspension after 1 to 3 days by ELISA. A general note: ELISA stands for enzyme-linked immunosorbent assay.
Chain of Beta-secretase 1 (Rattus norvegicus, UniProt P56819) (P56819 whole entry): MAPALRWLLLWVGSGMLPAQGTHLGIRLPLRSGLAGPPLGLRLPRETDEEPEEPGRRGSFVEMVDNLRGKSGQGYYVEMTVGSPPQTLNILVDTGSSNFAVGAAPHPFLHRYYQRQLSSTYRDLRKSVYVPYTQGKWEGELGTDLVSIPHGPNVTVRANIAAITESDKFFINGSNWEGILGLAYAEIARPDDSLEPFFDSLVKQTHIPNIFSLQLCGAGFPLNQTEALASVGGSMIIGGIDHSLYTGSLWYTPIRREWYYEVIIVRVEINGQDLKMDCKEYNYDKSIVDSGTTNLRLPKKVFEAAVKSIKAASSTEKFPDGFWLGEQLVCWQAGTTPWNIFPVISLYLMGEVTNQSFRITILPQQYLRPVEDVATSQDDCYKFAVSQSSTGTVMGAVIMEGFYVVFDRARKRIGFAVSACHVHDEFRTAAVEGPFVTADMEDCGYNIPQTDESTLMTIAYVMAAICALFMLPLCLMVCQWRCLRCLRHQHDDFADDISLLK
Series [5] addresses T1, Beta-secretase 1. As to the kind of experiment: Inhibition of human BACE1 using Biotin-XSEVNLDAEFRHDSGC as substrate incubated for 2 hrs by fluorescence method.
The target of series [6] is T1, Beta-secretase 1. Kind of series: Inhibition of BACE1 in human SH-SY5Y cells expressing betaAPP assessed as reduction in amyloidbeta (1 to 40 residues) level incubated for 24 hrs by HTRF assay. It counts as cell-based. In general terms: TR-FRET usually uses a lanthanide donor and a delayed reading to cut background.
In series [7] the target is T1, Beta-secretase 1. As to the kind of experiment: Inhibition of human BACE1 (1 to 460 residues) expressed in HEK293 cells after 16 to 24 hrs by FRET assay. It counts as cell-based.
Series [8] concerns the target T1, Beta-secretase 1. As to the kind of experiment: Inhibition of BACE1 (unknown origin).
In series [9] the target is T2, Beta-secretase 2 (Homo sapiens, UniProt Q9Y5Z0).
T2 sequence (Q9Y5Z0 whole entry): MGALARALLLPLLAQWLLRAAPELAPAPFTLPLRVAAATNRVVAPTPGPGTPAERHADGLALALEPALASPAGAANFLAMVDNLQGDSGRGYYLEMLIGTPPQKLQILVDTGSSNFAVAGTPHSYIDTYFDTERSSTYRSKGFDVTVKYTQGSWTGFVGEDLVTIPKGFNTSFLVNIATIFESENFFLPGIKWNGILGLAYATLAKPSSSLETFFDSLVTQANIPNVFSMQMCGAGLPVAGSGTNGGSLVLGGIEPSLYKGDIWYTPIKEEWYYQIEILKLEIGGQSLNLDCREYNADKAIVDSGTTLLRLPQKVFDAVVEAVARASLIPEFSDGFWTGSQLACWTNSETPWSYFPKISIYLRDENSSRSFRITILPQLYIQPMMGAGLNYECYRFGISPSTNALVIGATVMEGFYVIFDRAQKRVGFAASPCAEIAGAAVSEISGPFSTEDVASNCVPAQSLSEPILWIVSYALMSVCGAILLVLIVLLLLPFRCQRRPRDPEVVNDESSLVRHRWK
As to the kind of experiment: Inhibition of BACE2 (unknown origin).

A further series has as its target P-glycoprotein (ABCB1) (Homo sapiens, UniProt P08183). As to the kind of experiment: Substrate activity at p-glycoprotein (unknown origin) assessed as efflux ratio. Particulars: not told.
The target of series [10] is T1, Beta-secretase 1. As to the kind of experiment: Inhibition of BACE1 (unknown origin) incubated for 120 mins using APP swedish mutant as substrate by FRET assay.
Series [11] deals with T2, Beta-secretase 2. As to the kind of experiment: Inhibition of BACE2 (unknown origin) incubated for 450 mins using APP swedish mutant as substrate by FRET assay.
Series [12] addresses T1, Beta-secretase 1. Kind of series: Inhibition of BACE1 in human SK-N-BE(2) cells expressing human APP695 assessed as reduction in amyloidbeta (1 to 42 residues) level incubated for 18 hrs by sandwich ELISA. It is filed as cell-based.
Series [13] has as its target T1, Beta-secretase 1. Kind of series: Inhibition of human BACE1 using Biotin-XSEVNLDAEFRHDSGC as substrate incubated for […] by fluorescence method.
Series [14] deals with T1, Beta-secretase 1. As to the kind of experiment: Inhibition of C-terminal His6-tagged human BACE1 expressed in mammalian expression system preincubated for 1 hr followed by substrate addition and measured after 1 hr by FRET assay.
Series [15] addresses T2, Beta-secretase 2. As to the kind of experiment: Inhibition of C-terminal His6-tagged human BACE2 expressed in mammalian expression system preincubated for 1 hr followed by substrate addition and measured after 1 hr by FRET assay.
Series [16] has as its target T1, Beta-secretase 1. As to the kind of experiment: Inhibition of BACE1 (unknown origin) assessed as reduction in amyloidbeta 40 level after 24 hrs by cell-based sandwich ELISA.
A further series has as its system Mus musculus. As to the kind of experiment: In vivo inhibition of BACE1 in C57B1/6J mouse assessed as reduction in amyloidbeta 40 level in brain at 30 mg/kg, po measured at 4 hrs post dose by ELISA relative to control. It is filed as functional.
Series [17] has as its target T1, Beta-secretase 1. As to the kind of experiment: Inhibition of BACE1 (unknown origin) by cell-based assay.
The target in series [18] is T1, Beta-secretase 1. As to the kind of experiment: Inhibition of human BACE1 catalytic domain preincubated for 30 mins followed by QSY7-EISEVNLDAEFC-Europium-amide substrate addition and measured after […] by HTRF assay.
For series [19], the target named is T2, Beta-secretase 2. Kind of series: Inhibition of human BACE2 preincubated for 30 mins followed by QSY7- EISEVNLDAEFC-Eu-amide substrate addition and measured after […] by HTRF assay.

Each structure is given as a SMILES string.

In general, IC50 refers to the concentration that inhibits the measured activity by half. Usually pKa stands for the pH at which an ionisable group is half protonated. A higher pKa goes with a weaker acid or stronger base. The efflux ratio is a quotient of directional permeabilities that is used to spot active efflux. As usually defined, the inhibition in vivo is the relative decrease from the control value, in per cent. A word on the Ki: it is the equilibrium dissociation constant of an inhibitor or competing ligand from its target. High values mean weaker binding, low ones tighter binding.

T1 sequence (P56817 whole entry): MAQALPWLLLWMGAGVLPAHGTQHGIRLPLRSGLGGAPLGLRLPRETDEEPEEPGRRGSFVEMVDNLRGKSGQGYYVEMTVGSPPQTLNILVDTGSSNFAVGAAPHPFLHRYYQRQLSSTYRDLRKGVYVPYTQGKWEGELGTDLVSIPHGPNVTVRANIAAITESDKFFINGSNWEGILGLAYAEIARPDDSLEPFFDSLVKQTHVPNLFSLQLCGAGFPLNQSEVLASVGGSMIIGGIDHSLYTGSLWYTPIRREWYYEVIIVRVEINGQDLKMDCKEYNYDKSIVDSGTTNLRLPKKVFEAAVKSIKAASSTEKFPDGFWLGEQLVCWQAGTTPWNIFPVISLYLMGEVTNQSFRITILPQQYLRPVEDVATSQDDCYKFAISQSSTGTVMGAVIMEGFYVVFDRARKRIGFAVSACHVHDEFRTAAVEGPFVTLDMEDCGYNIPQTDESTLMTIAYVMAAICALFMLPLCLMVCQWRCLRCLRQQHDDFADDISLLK
Chain of P-glycoprotein (ABCB1) (P08183 whole entry): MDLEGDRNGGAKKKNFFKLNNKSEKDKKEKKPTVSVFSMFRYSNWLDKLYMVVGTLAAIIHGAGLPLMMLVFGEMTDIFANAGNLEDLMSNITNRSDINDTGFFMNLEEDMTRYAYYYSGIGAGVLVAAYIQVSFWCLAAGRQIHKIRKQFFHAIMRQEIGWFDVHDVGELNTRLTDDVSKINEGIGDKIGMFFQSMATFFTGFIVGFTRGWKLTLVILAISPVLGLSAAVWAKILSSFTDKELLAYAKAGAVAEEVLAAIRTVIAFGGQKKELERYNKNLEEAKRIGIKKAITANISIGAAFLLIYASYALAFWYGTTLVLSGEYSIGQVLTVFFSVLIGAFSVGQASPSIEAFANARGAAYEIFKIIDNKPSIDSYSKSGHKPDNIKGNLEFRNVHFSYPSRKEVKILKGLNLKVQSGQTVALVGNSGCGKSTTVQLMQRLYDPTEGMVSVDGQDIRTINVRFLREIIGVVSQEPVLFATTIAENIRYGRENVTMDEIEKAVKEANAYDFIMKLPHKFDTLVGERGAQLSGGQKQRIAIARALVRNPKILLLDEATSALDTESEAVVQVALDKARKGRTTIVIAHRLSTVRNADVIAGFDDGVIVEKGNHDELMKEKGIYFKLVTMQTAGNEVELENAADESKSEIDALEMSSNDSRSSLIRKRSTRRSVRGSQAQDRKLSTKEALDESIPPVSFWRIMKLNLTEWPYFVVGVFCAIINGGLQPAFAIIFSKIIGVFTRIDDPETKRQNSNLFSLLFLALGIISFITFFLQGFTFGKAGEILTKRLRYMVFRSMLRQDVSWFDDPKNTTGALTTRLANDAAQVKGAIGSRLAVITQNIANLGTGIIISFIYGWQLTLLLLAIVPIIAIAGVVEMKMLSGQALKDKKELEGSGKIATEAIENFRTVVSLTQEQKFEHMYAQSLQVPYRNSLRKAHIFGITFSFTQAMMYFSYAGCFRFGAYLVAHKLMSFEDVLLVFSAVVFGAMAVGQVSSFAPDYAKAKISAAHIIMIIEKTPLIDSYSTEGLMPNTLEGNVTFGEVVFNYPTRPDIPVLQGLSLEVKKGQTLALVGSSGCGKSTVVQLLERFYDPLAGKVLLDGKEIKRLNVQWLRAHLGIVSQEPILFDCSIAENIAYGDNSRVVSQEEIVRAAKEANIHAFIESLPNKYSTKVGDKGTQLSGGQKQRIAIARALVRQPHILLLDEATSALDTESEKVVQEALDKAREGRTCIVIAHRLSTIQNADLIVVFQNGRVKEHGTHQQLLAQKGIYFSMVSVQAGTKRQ

As to `C[C@@]1(c2cc(-c3cc(-c4cnc(C#N)cn4)no3)ccc2F)C[C@@H](C(F)(F)F)OC(N)=N1`, at Beta-secretase 1 [1], the half-maximal inhibitory concentration (IC50) stood at 30 nM.

The compound `C[C@]1(c2cc(NC(=O)c3ccc(C#N)cn3)ccc2F)N=C(N)C[C@H]1C(F)(F)F` came in with an IC50 at Beta-secretase 1 [2] of 182 nM. The pKa in [3] is 9.

Compound `COc1cnc(C(=O)Nc2ccc(F)c([C@]34CO[C@H](C(F)(F)F)[C@H]3CSC(N)=N4)c2)cn1` gave a half-inhibitory concentration (IC50) on Beta-secretase 1 [4] of 8 nM.

Turning to `C[C@H]1SC(N)=N[C@](C)(c2cc(NC(=O)c3ccc(OC(F)F)cn3)ccc2F)[C@H]1F`, the results for the IC50 on Beta-secretase 1 [5] and at Beta-secretase 1 [6] were 4.77 nM and 1.2 nM, respectively.

`COc1cnc(C(=O)Nc2ccnc([C@]34CN(c5ncc(F)cn5)C[C@H]3CSC(N)=N4)c2)cn1`: on Beta-secretase 1 [7], the concentration for half-maximal inhibition (IC50) came to 0.9 nM.

As for `C[C@@]1(c2nc(NC(=O)c3ccc(C#N)cn3)ccc2F)CS2(=O)=NCCCCN2C(N)=N1` (stereo not given in full), the IC50 at Beta-secretase 1 [1] amounted to 49 nM.

As to `C[C@@]1(c2cc(NC(=O)c3ccc(OCF)cn3)ccc2F)C[C@@H](C(F)(F)F)SC(N)=N1`, the half-inhibitory concentration (IC50) was found to be 5.67 nM on Beta-secretase 1 [8] and 1 nM on Beta-secretase 2 [9]. Moreover, on P-glycoprotein (ABCB1), the efflux ratio came out at 0.7.

Take `C[C@]1(c2cc(NC(=O)c3ccc(C#N)cn3)ccc2F)N=C(N)OCC12CC(F)(F)C2`: on Beta-secretase 1 [6], the half-inhibitory concentration (IC50) was found to be 0.615 nM.

As for `COc1ccc(C(=O)Nc2ccc(F)c([C@]3(C)CC[C@@](C)(C#N)C(N)=N3)c2)nc1`, the half-inhibitory concentration (IC50) was found to be 9.8 nM against Beta-secretase 1 [10], 66 nM at Beta-secretase 2 [11] and 6.9 nM at Beta-secretase 1 [12].

As to `C[C@]1(c2cc(NC(=O)c3ccc(C#N)cn3)ccc2F)N=C(N)OC2(COC2)[C@H]1F`, half-maximal inhibition against Beta-secretase 1 [13] (IC50) was put at 20.7 nM.

`C[C@]1(c2cc(NC(=O)c3ccc(C#N)cn3)ccc2F)N=C(N)O[C@H]2[C@@H]1OCC2(F)F`: at Beta-secretase 1 [6], the half-inhibitory concentration (IC50) is 0.391 nM.

`CN=S1(=O)C[C@@](C)(c2cc(-c3cc(-c4ncc(OC)cn4)no3)ccc2F)N=C(N)N1C` (single isomer, unassigned): the IC50 at Beta-secretase 1 [1] was 22 nM.

`C#C[C@]1(c2cc(NC(=O)c3ccc(C#N)cn3)ccc2F)N=C(N)O[C@@H]2C[C@@H]21` gave an IC50 on Beta-secretase 1 [13] of 22.8 nM.

Consider `COc1nc(N2C[C@H]3CSC(N)=N[C@@]3(c3ccns3)C2)nc(C)c1F`, for which the IC50 against Beta-secretase 1 [7] came out at 172 nM.

Take `NC1=N[C@](CF)(c2cc(NC(=O)c3cnc(Cl)cn3)ccc2F)[C@@H]2C[C@]2(C(F)F)S1`: the values for the 50% inhibitory concentration (IC50) against Beta-secretase 1 [14], at Beta-secretase 2 [15] and at Beta-secretase 1 [16] were 1.6 nM, 13.2 nM and 3.7 nM, respectively.

Consider `NC1=N[C@@]2(COc3ccc(NC(=O)c4cnc(OCC(F)(F)F)cn4)cc32)[C@H](C(F)(F)F)C1`, for which inhibition on Beta-secretase 1 [2] was half-maximal at 7080 nM (IC50).

On to `Cc1cc(C#N)cnc1C(=O)Nc1ccc(F)c([C@@]2(C)N=C(N)C(C)(C)[S@@]3(=O)=NCC[C@@H]23)c1`, for which the inhibition in vivo at 30 mg/kg with Mus musculus was found to be 86%.

As to `C[C@@]1(c2cc(NC(=O)c3ccc(C#N)cc3)ccc2F)Cn2cnc(C(F)F)c2C(N)=N1`, the IC50 worked out at 3.5 nM on Beta-secretase 1 [8], 0.95 nM against Beta-secretase 1 [17] and 15.8 nM on Beta-secretase 2 [9].

Take `CN1C(=N)N[C@]2(C)c3cc(NC(=O)c4ccc(C#N)cn4)ccc3OCC[C@@H]2S1(=O)=O` (relative stereo): the Ki came out at 47 nM at Beta-secretase 1 [18] and 303 nM on Beta-secretase 2 [19].

Turning to `Cn1cc2n(c1=O)C[C@@](C)(c1cc(NC(=O)c3ccc(C#N)cn3)ccc1F)N=C2N`, the IC50 amounted to 3.9 nM against Beta-secretase 1 [8] and 13.2 nM at Beta-secretase 1 [17].

As for `CN1C(N)=N[C@](C)(c2cc(NC(=S)c3ccc(C#N)cn3)ccc2F)CS1(=O)=O`, the Ki at Beta-secretase 1 [18] amounted to 9.1 nM; on Beta-secretase 2 [19], 1 nM.

Regarding `CC#CCOc1cnc(C2=Nc3cc([C@]4(C)C[C@@H](C(F)(F)F)OC(N)=N4)c(F)cc3CN2)cn1`, the IC50 on Beta-secretase 1 [1] was 9 nM.

The record behind these values is ChEMBL document CHEMBL4342403, “New evolutions in the BACE1 inhibitor field from 2014 to 2018” (Bioorg Med Chem Lett, 2019).
